Measured values as given in patent US20260345459A1, “SUBMICRON PARTICLE COMPRISING A PEPTIDE ACTIVE, PREPARATION METHOD AND USES THEREOF, IN PARTICULAR COSMETIC USES” (Sederma, priority 2023, published 2026).
Each block holds one compound with its values, some of them ahead of it. Residues, ends and D or L forms follow the SMILES beside them. No end group written: not given here. *: point of attachment. Palmitoyl = CCCCCCCCCCCCCCCC(=O)*; Lauroyl = CCCCCCCCCCCC(=O)*

Experiments:
[1] = Accelerated stability at 40 °C; type: physicochemical
Protocol: (§1) For these studies, encapsulated peptide formulations were stored in HDPE polyethylene bottles at the study temperature (room temperature and 40 °C). At each analysis time, a new 30 g bottle is opened for the first time. All the samples are handled under regular laboratory lighting and normal air conditions. No inert gas is used to fill the bottles or to handle the samples.
The study was performed at 40 °C. At this temperature, degradation is accelerated. There is a correlation with degradation at room temperature, 90 days at 40 °C being equivalent to 1 year at room temperature. This study thus constitutes a good indicator of the stability of the encapsulated peptide suspensions according to the invention.

[2] = Characterization of the obtained suspensions at T0 (macroscopic, pH, laser diffraction particle size, polydispersity, HPLC peptide content); type: physicochemical; details: different derivatization, peptide 100 ppm
Protocol: For each suspension, the presence or absence of heterogeneous aspects, phase separation or precipitation, and colour are visually assessed through a colourless transparent bottle without the use of any instruments. The viscosity is also estimated visually in comparison with water.
The pH was measured directly in the formulation (without dilution) using a calibrated potentiometer (pH 4.0 and 7.0).
Laser diffraction technique (Mastersizer 3000™, Malvern). The suspension is added directly to the water-containing wet dispersion unit until darkening in the 2-8% range. The refractive index used is 1.456, corresponding to the index of wax, i.e. cetyl palmitate. The results are expressed in D50 corresponding to particle diameters at the 50th percentile of the particle size distribution curve, representing the mean particle size.
A range of less than 2 is considered as a narrow distribution, describing particle size homogeneity.
This is quantified using an HPLC chromatography method, with a column, mobile phase and detection appropriate to each peptide active agent. An external calibration curve is produced.
Each suspension is treated by liquid/liquid extraction of a mixture composed of isopropanol, a pH 2-2.5 buffer and an organic solvent (acetonitrile or methanol) depending on the peptide to be dosed.
For Pal-KTTKS, Pal-GHK, Pal-GQPR and Pal-VGVAPG peptides, quantification is performed, for example, by HPLC at 35 °C using a Waters Symmetry™ C18 5 μm 4.6×150 mm HPLC column, a mobile phase consisting of an eluent of 99.8/0.1/0.1 v/v/v water/orthosphoric acid/triethylamine and acetonitrile. Detection is performed at 210 nm.
For the Pal-PP peptide, for example, analysis is performed at 40 °C using a Macherey Nagel™ EC 125/4 Nucleodur 100-5 C8 ec column, a mobile phase consisting of a 99.8/0.1/0.1 v/v/v water/orthosphoric acid/triethylamine and acetonitrile eluent. Detection is performed at 210 nm. […]

[3] = Stability at room temperature; type: physicochemical
Protocol: as §1
The following encapsulated peptides were monitored: Pal-KTTKS, Pal-GHK, Pal-GQPR, Pal-KTFK, Pal-KMO2K, Pal-VGVAPG and Pal-PP.

[4] = Trypsin digestion: proof of encapsulation and half-life; type: in vitro ADME; details: role: substrate; 0.003% trypsin, acetate buffer pH=5, 25 °C, peptide 100 ppm; read-out: T1/2 (loss of 50% of the initial content)
Protocol: The study was performed on a suspension of Pal-KTTKS encapsulated according to the invention, using trypsin, an enzyme that hydrolyses a peptide whose sequence contains the amino acid lysine. The peptide is placed in the presence of trypsin and the amount of peptide remaining, i.e. not hydrolysed by trypsin, is measured as a function of time. Only the peptide released from the capsule over time is susceptible to hydrolysis.
At T0, measurements make it possible to confirm that the peptide is encapsulated.
The kinetics will then make it possible to determine the half-life, which constitutes an indicator of the peptide's accessibility to the enzyme, and therefore an indicator of the peptide's protection by the capsule.
Two solutions are compared: one containing the encapsulated peptide (100 ppm) and the other the free (i.e. non-encapsulated) peptide, also at 100 ppm. Acetate buffer solution at pH=5 containing 0.003% trypsin is added. The samples are heated to 25 °C. The enzymatic reaction is stopped to perform the measurements by adding isopropyl alcohol. Peptide quantification is performed by HPLC using the method described in paragraph B 1-4 above.
Hydrolysis monitoring is performed under the chromatographic analysis conditions described in paragraph B 1-4 above.

[5] = different derivatization, peptide 100 ppm, 1 month at 40 °C
[6] = TA1 decyl glucoside, RT, 3 months

Compound: CCCCCCCCCCCCCCCCOC(=O)[C@H](CCCNC(=N)N)NC(=O)[C@H](Cc1ccc(O)cc1)NC(C)=O [N-Acetyl-YR-O-hexadecyl ester, Acetyl-Tyr-Arg-hexadecyl ester]
- D50 [1, 5]: D50 (μm) = 0.237
- Stability over time [1, 5]: Yes
- pH [1, 5]: pH 8.70
- D50 [2]: D50 (μm) = 0.234
- Formation of a suspension of submicron particles [2]: Yes
- pH [2]: pH 8.70

Compound: CCCCCCCCCCCCCCCC(=O)N[C@@H](CCCCN)C(=O)N[C@H](C(=O)N[C@H](C(=O)N[C@@H](CCCCN)C(=O)N[C@@H](CO)C(=O)O)[C@@H](C)O)[C@@H](C)O [Pal-KTTKS] (Palmitoyl-KTTKS-OH)
- Stability over time ([3]; 2.5% wax, RT, 6 months): Yes
- Stability over time ([3]; 5% wax, RT, 6 months): Yes
- Stability over time [3, 6]: Yes (3 months)
- Stability over time ([3]; TA1 lauryl glucoside, RT, 12 months): Yes (12 months)
- stability duration ([3]; room temperature, encapsulated): up to 1 year
- Stability over time [1, 5]: Yes
- half-life [4]: 1 h

Compound: CCCCCCCCCCCC(=O)N[C@@H](CCCCN)C(=O)N[C@H](C(=O)N[C@@H](CO)C(=O)N[C@@H](CCCCN)C(=O)N[C@@H](CO)C(=O)O)[C@@H](C)O [Lauroyl-KTSKS] (Lauroyl-KTSKS-OH)
- Stability over time [1, 5]: Yes

Compound: CCCCCCCCCCCCCCCC(=O)NCC(=O)N[C@@H](Cc1c[nH]cn1)C(=O)N[C@@H](CCCCN)C(=O)O [Pal-GHK] (Palmitoyl-Gly-His-Lys-OH)
- Stability over time ([3]; 10% glycerol, 1 month): Yes
- Stability over time ([3]; TA1 + TA2 (Lipoid P75-3), 3 months at RT): Yes
- Stability over time [3, 6]: Yes (3 months)
- Stability over time ([3]; TA1 lauryl glucoside, RT, 3 months): Yes (3 months)
- Stability over time ([3]; TA1 only, without TA2, 3 months at RT): Yes
- Stability over time ([3]; peptide content 100 ppm, RT, 1 month): Yes
- Stability over time ([3]; peptide content 500 ppm, RT, 1 month): Yes
- Stability over time ([3]; peptide content 1000 ppm, RT, 1 month): Yes
- Stability over time ([3]; without glycerol, 1 month): Yes
- Stability over time ([1]; TA1 + TA2 (Lipoid P75-3), 3 months at 40 °C): Yes
- Stability over time ([1]; TA1 only, without TA2, 3 months at 40 °C): No: Phase

The remaining lines, values ahead:

- Stability over time [1, 5]: Yes
Compound: KTTKS [H-KTTKS]

- Stability over time [1, 5]: Yes
Compound: CCCCCCCC(=O)N[C@H](C(=O)N[C@@H](Cc1c[nH]c2ccccc12)C(=O)O)[C@@H](C)CC [Octanoyl-IW]
